Data set [1] in a line: Cytotoxicity against human Huh-7 cells infected with DENV assessed as reduction in cell viability by microplate spectrophotometry. It is filed as toxicity, cell-based.
Data set [2] relates to Dengue virus. Kind of data set: Antiviral activity against DENV infected in human Huh-7 cells assessed as percent of infected cells at 12.5 uM incubated for 72 hrs by flow cytometry relative to control. In kind it is functional. On the technique in general: In flow cytometry, cells or beads pass a laser one at a time.
The test system of data set [3] is Dengue virus. Kind of data set: Antiviral activity against DENV infected in human Huh-7 cells assessed as percent of infected cells at 50 uM incubated for 72 hrs by flow cytometry relative to control. It is filed as functional.
Data set [4] in a line: Selectivity index, ratio of CC50 for human Huh-7 cells to EC50 for DENV infected in Huh-7 cells. As to conditions: read-out: Selectivity Index. It is filed as toxicity, cell-based.
Data set [5] deals with Dengue virus. Kind of data set: Antiviral activity against DENV infected in human Huh-7 cells assessed as reduction in viral growth incubated for 72 hrs by flow cytometry. In kind it is functional, organism-based. As to conditions: Huh-7, 72 h.

Some results are limits rather than exact numbers.

Usually CC50 stands for the concentration that lowers cell viability or growth by half. As usually defined, the EC50 is the concentration that produces a half-maximal response. As for `FC(F)(F)c1ccc(/N=N/n2ccnc2)cc1`, the CC50 in data set [1] was over 100 µM. The Activity in the data set with Dengue virus [2] is recorded as 0%; in the data set with Dengue virus [3] it was “<=20%”. In data set [4], the selectivity ratio was over 12.8. In the data set on Dengue virus [5], the EC50 worked out at 7.82 µM.

As to `NC(=O)c1ncn([C@@H]2O[C@H](CO)[C@@H](O)[C@H]2O)n1` [RIBAVIRIN], the EC50 in the data set with Dengue virus [5] amounted to 40.8 µM.

As to `CN(/N=N/c1cccnc1)c1ccccc1`, the CC50 in data set [1] was 20.6 µM. The 50% effective concentration (EC50) in the data set on Dengue virus [5] was determined as 11.7 µM.

In the case of `c1cncc(/N=N/N2CCCc3ccccc32)c1`, the half-maximal cytotoxic concentration (CC50) in data set [1] was 7.09 µM. Moreover, in the data set on Dengue virus [3], the Activity amounted to 22%. Moreover, the EC50 with Dengue virus [5] was 7.92 µM.

For the compound `O[C@H]1[C@H]2c3cc4c(cc3CN3CCC(=C[C@@H]1O)[C@H]23)OCO4` [LYCORINE], the EC50 in the data set on Dengue virus [5] was 1.7 µM.

As to `FC(F)(F)c1ccc(/N=N/Nc2ccncc2)cc1`, in data set [1], the CC50 amounted to 11.9 µM.

Take `c1ccc(/N=N/Nc2ccccn2)cc1`: the CC50 in data set [1] is 22.1 µM. Moreover, the Activity result in the data set on Dengue virus [3] is “<=20%”. Also, in the data set on Dengue virus [5], the EC50 stood at 10.6 µM.

Turning to `COc1ccc(/N=N/Nc2ccccn2)cc1`, the CC50 in data set [1] turned out to be 15.5 µM. In addition, the Activity entry in the data set on Dengue virus [3] is “<=20%”. For the same compound, the half-maximal effective concentration (EC50) with Dengue virus [5] is under 1.56 µM.

Regarding `COc1ccc(/N=N/Nc2ncccc2C)cc1`, the CC50 in data set [1] is over 100 µM. In the data set with Dengue virus [3], the Activity was 22%. The EC50 with Dengue virus [5] was 11.5 µM.

In the case of `Brc1cccc(/N=N/Nc2ccccn2)c1`, the CC50 in data set [1] amounted to 27.4 µM. Also, the Activity entry with Dengue virus [3] is “<=20%”. The concentration giving a half-maximal response (EC50) with Dengue virus [5] was 8.45 µM.

`COc1ccc(/N=N/n2ccnc2)cc1`: the 50% cytotoxic concentration (CC50) in data set [1] stood at 72 µM. Also, the Activity with Dengue virus [3] is recorded as 22%. In addition, the selectivity ratio in data set [4] amounted to 2.22. Moreover, in the data set on Dengue virus [5], the EC50 came to 32.4 µM.

For the compound `COc1ccc(/N=N/Nc2ccncc2)cc1`, the CC50 in data set [1] was found to be 28.5 µM. Further, in the data set on Dengue virus [3], the Activity came out at 22%. Besides, the concentration for a half-maximal effect (EC50) with Dengue virus [5] was 48.1 µM.

On to `Brc1ccc(/N=N/Nc2ccccn2)cc1`, for which the CC50 in data set [1] worked out at 75.6 µM. Further, in the data set on Dengue virus [3], the Activity entry was “<=20%”. For the same compound, the selectivity ratio in data set [4] came to 9.36. The EC50 in the data set on Dengue virus [5] amounted to 8.08 µM.

`CCN(CC)/N=N/c1ccc(OC)cc1`: the CC50 in data set [1] amounted to 24.4 µM. For the same compound, in the data set on Dengue virus [3], the Activity was found to be 22%. The 50% effective concentration (EC50) with Dengue virus [5] is over 50 µM.
